Measured values taken from ChEMBL document CHEMBL5038659, “Discovery of the First Examples of Threonine Tyrosine Kinase PROTAC Degraders” (J Med Chem, 2022).

Assays:
[1] = target: T1, Protein cereblon/Dual specificity protein kinase TTK (Homo sapiens, UniProt P33981+Q96SW2); assay: Protac activity at CRBN/TTK in human HCT-116 cells assessed as degradation of TTK measured after 6 hrs by Western blotting analysis; type: cell-based
Target sequence in this assay (P33981 whole entry): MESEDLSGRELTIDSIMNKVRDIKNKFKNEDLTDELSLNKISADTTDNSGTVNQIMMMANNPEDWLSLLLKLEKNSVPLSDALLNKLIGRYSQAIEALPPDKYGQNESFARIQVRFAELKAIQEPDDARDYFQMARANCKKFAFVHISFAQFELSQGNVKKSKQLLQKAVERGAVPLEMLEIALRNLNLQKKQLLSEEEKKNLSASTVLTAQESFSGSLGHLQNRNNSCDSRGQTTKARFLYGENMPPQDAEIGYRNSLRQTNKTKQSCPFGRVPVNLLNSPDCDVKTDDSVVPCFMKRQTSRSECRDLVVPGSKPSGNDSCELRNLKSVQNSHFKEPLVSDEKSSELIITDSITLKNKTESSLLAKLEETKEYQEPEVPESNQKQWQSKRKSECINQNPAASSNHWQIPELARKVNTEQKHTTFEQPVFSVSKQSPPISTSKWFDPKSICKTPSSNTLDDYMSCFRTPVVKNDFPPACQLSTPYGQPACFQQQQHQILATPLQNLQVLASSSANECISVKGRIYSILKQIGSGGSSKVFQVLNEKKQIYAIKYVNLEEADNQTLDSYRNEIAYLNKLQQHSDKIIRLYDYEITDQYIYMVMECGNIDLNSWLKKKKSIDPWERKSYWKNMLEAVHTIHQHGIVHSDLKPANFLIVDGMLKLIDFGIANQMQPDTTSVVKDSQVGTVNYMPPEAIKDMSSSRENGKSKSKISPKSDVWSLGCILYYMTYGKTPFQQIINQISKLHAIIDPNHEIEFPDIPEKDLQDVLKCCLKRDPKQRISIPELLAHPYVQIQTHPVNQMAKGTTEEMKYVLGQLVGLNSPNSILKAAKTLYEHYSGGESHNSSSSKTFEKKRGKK
Target sequence in this assay (Q96SW2 whole entry): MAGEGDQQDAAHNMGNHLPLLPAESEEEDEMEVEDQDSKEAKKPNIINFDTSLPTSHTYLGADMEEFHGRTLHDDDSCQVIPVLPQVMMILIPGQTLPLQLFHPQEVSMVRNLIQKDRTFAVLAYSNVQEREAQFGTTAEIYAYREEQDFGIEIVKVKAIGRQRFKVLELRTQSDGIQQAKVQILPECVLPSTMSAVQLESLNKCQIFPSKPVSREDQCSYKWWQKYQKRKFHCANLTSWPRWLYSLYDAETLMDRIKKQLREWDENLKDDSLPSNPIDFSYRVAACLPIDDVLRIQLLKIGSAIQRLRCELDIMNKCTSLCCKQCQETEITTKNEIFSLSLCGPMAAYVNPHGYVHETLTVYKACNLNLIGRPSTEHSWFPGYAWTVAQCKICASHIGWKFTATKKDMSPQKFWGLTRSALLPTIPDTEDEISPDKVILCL

[2] = target: T1, Protein cereblon/Dual specificity protein kinase TTK; assay: Protac activity at CRBN/TTK in human COLO 205 cells assessed as degradation of TTK measured after 6 hrs by Western blotting analysis; type: cell-based
Target sequence in this assay (P33981 whole entry): as the sequence (P33981 whole entry) above
Target sequence in this assay (Q96SW2 whole entry): as the sequence (Q96SW2 whole entry) above

[3] = target: T1, Protein cereblon/Dual specificity protein kinase TTK; assay: Protac activity at CRBN/TTK in human HCT-116 cells assessed as TTK degradation by measuring maximum degradation after 6 hrs by Western blotting analysis relative to control; type: cell-based
Target sequence in this assay (P33981 whole entry, looked up): as the sequence (P33981 whole entry) above
Target sequence in this assay (Q96SW2 whole entry, looked up): as the sequence (Q96SW2 whole entry) above

[4] = target: T1, Protein cereblon/Dual specificity protein kinase TTK; assay: Protac activity at CRBN/TTK in human COLO 205 cells assessed as TTK degradation by measuring maximum degradation after 6 hrs by Western blotting analysis relative to control; type: cell-based
Target sequence in this assay (P33981 whole entry, looked up): as the sequence (P33981 whole entry) above
Target sequence in this assay (Q96SW2 whole entry, looked up): as the sequence (Q96SW2 whole entry) above

[5] = tested on: COLO 205; assay: Antiproliferative against human COLO 205 cells assessed as cell viability after 4 days by CCK-8 assay; type: functional, cell-based; details: COLO 205, 96 h
[6] = target: von Hippel-Lindau disease tumor suppressor/Dual specificity protein kinase TTK (Homo sapiens, UniProt P33981+P40337); assay: Protac activity at VHL/TTK in human HCT-116 cells assessed as degradation of TTK measured after 6 hrs by Western blotting analysis; type: cell-based
von Hippel-Lindau disease tumor suppressor/Dual specificity protein kinase TTK, sequence (P33981 whole entry): as the sequence (P33981 whole entry) above
von Hippel-Lindau disease tumor suppressor/Dual specificity protein kinase TTK, sequence (P40337 whole entry): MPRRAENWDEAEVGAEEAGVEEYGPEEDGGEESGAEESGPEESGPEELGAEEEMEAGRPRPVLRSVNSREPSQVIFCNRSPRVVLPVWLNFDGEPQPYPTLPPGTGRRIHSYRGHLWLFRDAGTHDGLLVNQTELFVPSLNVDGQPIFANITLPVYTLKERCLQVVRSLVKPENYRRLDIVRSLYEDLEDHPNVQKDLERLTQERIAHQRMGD

Row | Structure (SMILES) | DC50 [1] | DC50 [2] | Emax [3] | Emax [4] | IC50 [5] | DC50 [6]
1 | CCC(=O)N[C@H]1CC[C@@H](n2c(=O)cc(C)c3cnc(Nc4ccc(N5CCN(C(=O)CCCCCCCCCC#Cc6cccc7c6C(=O)N(C6CCC(=O)NC6=O)C7)CC5)cc4OC)nc32)CC1 (some centres not stated) | > 1000 nM | 21.7 nM | 13% | 88% |  | 
2 | CCC(=O)N[C@H]1CC[C@@H](n2c(=O)cc(C)c3cnc(Nc4ccc(N5CCN(C(=O)CCCCCCCC#Cc6cccc7c6CN(C6CCC(=O)NC6=O)C7=O)CC5)cc4OC)nc32)CC1 (some centres not stated) | 58.1 nM | 7 nM | 53% | 84% |  | 
3 | CCC(=O)N[C@H]1CC[C@@H](n2c(=O)cc(C)c3cnc(Nc4ccc(N5CCN(C(=O)CCCC#Cc6ccc7c(c6)C(=O)N(C6CCC(=O)NC6=O)C7)CC5)cc4OC)nc32)CC1 (some centres not stated) | 25.4 nM | 3.3 nM | 57% | 77% |  | 
4 | CCC(=O)N[C@H]1CC[C@@H](n2c(=O)cc(C)c3cnc(Nc4ccc(N5CCN(C(=O)CCCC#Cc6ccc7c(c6)CN(C6CCC(=O)N(C)C6=O)C7=O)CC5)cc4OC)nc32)CC1 (some centres not stated) |  |  |  |  | 1500 nM | 
5 | CCC(=O)N[C@H]1CC[C@@H](n2c(=O)cc(C)c3cnc(Nc4ccc(N5CCN(C(=O)CCCCCCCC#Cc6ccc7c(c6)C(=O)N(C6CCC(=O)NC6=O)C7)CC5)cc4OC)nc32)CC1 (some centres not stated) | 161 nM | 7 nM | 43% | 84% |  | 
6 | CCC(=O)N[C@H]1CC[C@@H](n2c(=O)cc(C)c3cnc(Nc4ccc(N5CCN(CCCCCCCCOCCC(=O)N[C@H](C(=O)N6C[C@H](O)C[C@H]6C(=O)NCc6ccc(-c7scnc7C)cc6)C(C)(C)C)CC5)cc4OC)nc32)CC1 |  |  |  |  |  | > 1000 nM
7 | CCC(=O)N[C@H]1CC[C@@H](n2c(=O)cc(C)c3cnc(Nc4ccc(N5CCN(C(=O)CCCC#Cc6cccc7c6C(=O)N(C6CCC(=O)NC6=O)C7)CC5)cc4OC)nc32)CC1 (some centres not stated) | > 1000 nM | 30.3 nM | 28% | 64% |  | 
8 | CCC(=O)N[C@H]1CC[C@@H](n2c(=O)cc(C)c3cnc(Nc4ccc(N5CCN(C(=O)CCCCCC#Cc6ccc7c(c6)C(=O)N(C6CCC(=O)N(C)C6=O)C7)CC5)cc4OC)nc32)CC1 (some centres not stated) |  |  |  |  | 1500 nM | 
9 | CCC(=O)N[C@H]1CC[C@@H](n2c(=O)cc(C)c3cnc(Nc4ccc(N5CCN(CCCCCCOCCC(=O)N[C@H](C(=O)N6C[C@H](O)C[C@H]6C(=O)NCc6ccc(-c7scnc7C)cc6)C(C)(C)C)CC5)cc4OC)nc32)CC1 |  |  |  |  |  | > 1000 nM
10 | CCC(=O)N[C@H]1CC[C@@H](n2c(=O)cc(C)c3cnc(Nc4ccc(N5CCN(CCOCCC(=O)N[C@H](C(=O)N6C[C@H](O)C[C@H]6C(=O)NCc6ccc(-c7scnc7C)cc6)C(C)(C)C)CC5)cc4OC)nc32)CC1 |  |  |  |  |  | > 1000 nM
11 | CCC(=O)N[C@H]1CC[C@@H](n2c(=O)cc(C)c3cnc(Nc4ccc(N5CCN(C(=O)CCCC#Cc6cccc7c6CN(C6CCC(=O)NC6=O)C7=O)CC5)cc4OC)nc32)CC1 (some centres not stated) | > 1000 nM | 599 nM | 43% | 28% |  | 
12 | CCC(=O)N[C@H]1CC[C@@H](n2c(=O)cc(C)c3cnc(Nc4ccc(N5CCN(CCCCOCCC(=O)N[C@H](C(=O)N6C[C@H](O)C[C@H]6C(=O)NCc6ccc(-c7scnc7C)cc6)C(C)(C)C)CC5)cc4OC)nc32)CC1 |  |  |  |  |  | > 1000 nM

Further lines, results first:

Row | DC50 [1] | DC50 [2] | Emax [3] | Emax [4] | IC50 [5] | DC50 [6] | Structure (SMILES)
13 | 49.6 nM | 2.2 nM | 66% | 87% |  |  | CCC(=O)N[C@H]1CC[C@@H](n2c(=O)cc(C)c3cnc(Nc4ccc(N5CCN(C(=O)CCCCCCCCCC#Cc6cccc7c6CN(C6CCC(=O)NC6=O)C7=O)CC5)cc4OC)nc32)CC1 (some centres not stated)
14 | > 1000 nM | 31.3 nM | 41% | 72% |  |  | CCC(=O)N[C@H]1CC[C@@H](n2c(=O)cc(C)c3cnc(Nc4ccc(N5CCN(C(=O)CCCCCC#Cc6cccc7c6C(=O)N(C6CCC(=O)NC6=O)C7)CC5)cc4OC)nc32)CC1 (some centres not stated)
15 | 30.2 nM | 5.6 nM | 83% | 85% |  |  | CCC(=O)N[C@H]1CC[C@@H](n2c(=O)cc(C)c3cnc(Nc4ccc(N5CCN(C(=O)CCCCCCCCCC#Cc6ccc7c(c6)CN(C6CCC(=O)NC6=O)C7=O)CC5)cc4OC)nc32)CC1 (some centres not stated)
16 | 74.5 nM | 19.1 nM | 66% | 87% |  |  | CCC(=O)N[C@H]1CC[C@@H](n2c(=O)cc(C)c3cnc(Nc4ccc(N5CCN(C(=O)CCCCCCCCCC#Cc6ccc7c(c6)C(=O)N(C6CCC(=O)NC6=O)C7)CC5)cc4OC)nc32)CC1 (some centres not stated)
17 | 35 nM | 1.5 nM | 61% | 86% |  |  | CCC(=O)N[C@H]1CC[C@@H](n2c(=O)cc(C)c3cnc(Nc4ccc(N5CCN(C(=O)CCCCCC#Cc6ccc7c(c6)CN(C6CCC(=O)NC6=O)C7=O)CC5)cc4OC)nc32)CC1 (some centres not stated)
18 | 496 nM | 46 nM | 37% | 73% |  |  | CCC(=O)N[C@H]1CC[C@@H](n2c(=O)cc(C)c3cnc(Nc4ccc(N5CCN(C(=O)CCCCCCCC#Cc6cccc7c6C(=O)N(C6CCC(=O)NC6=O)C7)CC5)cc4OC)nc32)CC1 (some centres not stated)
19 | 20.3 nM | 5 nM | 50% | 76% |  |  | CCC(=O)N[C@H]1CC[C@@H](n2c(=O)cc(C)c3cnc(Nc4ccc(N5CCN(C(=O)CCCCCC#Cc6cccc7c6CN(C6CCC(=O)NC6=O)C7=O)CC5)cc4OC)nc32)CC1 (some centres not stated)
20 | 663 nM | 3 nM | 50% | 85% |  |  | CCC(=O)N[C@H]1CC[C@@H](n2c(=O)cc(C)c3cnc(Nc4ccc(N5CCN(C(=O)CCCCCCCC#Cc6ccc7c(c6)CN(C6CCC(=O)NC6=O)C7=O)CC5)cc4OC)nc32)CC1 (some centres not stated)
